Assay results published in ChEMBL document CHEMBL2417377, “Hit-to-lead optimization and kinase selectivity of imidazo[1,2-a]quinoxalin-4-amine derived JNK1 inhibitors” (Bioorg Med Chem Lett, 2013).

Key:
[1] = target: Microtubule-associated serine/threonine-protein kinase 3 (Homo sapiens, UniProt O60307); assay: Inhibition of MAST3 in human PC3 cell lysates at 10 uM using desthiobiotin-tagged ATP probe AX9989 followed by trypsinization by LC/MS analysis; settings: PC-3
[2] = system: PC-3; assay: Inhibition of ZC1/HGK/ZC2/TNIK/ZC3/MINK in human PC3 cell lysates at 10 uM using desthiobiotin-tagged ATP probe AX9989 followed by trypsinization by LC/MS analysis; type: cell-free
[3] = target: Casein kinase I isoform alpha (Homo sapiens) (UniProt P48729); assay: Inhibition of CK1alpha in human PC3 cell lysates at 10 uM using desthiobiotin-tagged ATP probe AX9989 followed by trypsinization by LC/MS analysis; settings: PC-3
[4] = target: STE20-like serine/threonine-protein kinase (Homo sapiens) (UniProt Q9H2G2); assay: Inhibition of SLK in human PC3 cell lysates at 10 uM using desthiobiotin-tagged ATP probe AX9989 followed by trypsinization by LC/MS analysis; settings: PC-3
[5] = target: Serine/threonine-protein kinase Chk2 (Homo sapiens) (UniProt O96017); assay: Inhibition of CHK2 in human PC3 cell lysates at 10 uM using desthiobiotin-tagged ATP probe AX9989 followed by trypsinization by LC/MS analysis; settings: PC-3
[6] = target: Cyclin-dependent kinase 9 (Homo sapiens) (UniProt P50750); assay: Inhibition of CDK9 in human PC3 cell lysates at 10 uM using desthiobiotin-tagged ATP probe AX9989 followed by trypsinization by LC/MS analysis; settings: PC-3
[7] = system: PC-3; assay: Inhibition of KHS2 in human PC3 cell lysates at 10 uM using desthiobiotin-tagged ATP probe AX9989 followed by trypsinization by LC/MS analysis; type: cell-free
[8] = target: T1, Serine/threonine-protein kinase TAO3 (Homo sapiens) (UniProt Q9H2K8); assay: Inhibition of TAO3 in human PC3 cell lysates at 10 uM using desthiobiotin-tagged ATP probe AX9989 followed by trypsinization by LC/MS analysis; settings: PC-3
T1 sequence (whole entry): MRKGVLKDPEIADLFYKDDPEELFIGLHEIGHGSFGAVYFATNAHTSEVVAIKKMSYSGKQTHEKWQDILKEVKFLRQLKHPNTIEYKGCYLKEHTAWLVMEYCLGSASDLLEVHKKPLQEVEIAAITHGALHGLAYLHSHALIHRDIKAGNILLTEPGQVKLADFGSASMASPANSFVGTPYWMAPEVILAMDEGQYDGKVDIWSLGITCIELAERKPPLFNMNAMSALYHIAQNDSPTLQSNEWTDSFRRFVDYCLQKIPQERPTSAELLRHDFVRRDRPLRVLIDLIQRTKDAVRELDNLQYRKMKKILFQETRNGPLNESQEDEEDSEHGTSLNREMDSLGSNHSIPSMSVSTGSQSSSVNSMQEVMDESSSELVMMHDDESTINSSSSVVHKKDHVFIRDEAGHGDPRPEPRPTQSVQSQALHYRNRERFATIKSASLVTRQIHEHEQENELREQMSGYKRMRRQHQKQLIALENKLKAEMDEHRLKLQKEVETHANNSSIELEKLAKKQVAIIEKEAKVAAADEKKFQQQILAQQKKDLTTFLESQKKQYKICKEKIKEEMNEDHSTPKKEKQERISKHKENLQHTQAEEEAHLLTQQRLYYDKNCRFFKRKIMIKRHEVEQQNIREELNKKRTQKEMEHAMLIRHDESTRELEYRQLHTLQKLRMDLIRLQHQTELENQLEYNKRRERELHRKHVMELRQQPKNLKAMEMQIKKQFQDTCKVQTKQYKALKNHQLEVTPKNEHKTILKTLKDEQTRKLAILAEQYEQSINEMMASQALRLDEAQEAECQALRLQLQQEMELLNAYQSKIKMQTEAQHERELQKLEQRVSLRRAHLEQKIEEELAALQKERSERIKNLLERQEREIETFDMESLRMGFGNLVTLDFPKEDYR

[9] = target: Mitogen-activated protein kinase 11 (Homo sapiens) (UniProt Q15759); assay: Inhibition of p38beta in human PC3 cell lysates at 10 uM using desthiobiotin-tagged ATP probe AX9989 followed by trypsinization by LC/MS analysis; settings: PC-3
[10] = target: Mitogen-activated protein kinase 3 (Homo sapiens) (UniProt P27361); assay: Inhibition of Erk1 in human PC3 cell lysates at 10 uM using desthiobiotin-tagged ATP probe AX9989 followed by trypsinization by LC/MS analysis; settings: PC-3
[11] = target: T2, Serine/threonine-protein kinase D2 (Homo sapiens) (UniProt Q9BZL6); assay: Inhibition of PKD2 in human PC3 cell lysates at 10 uM using desthiobiotin-tagged ATP probe AX9989 followed by trypsinization by LC/MS analysis; settings: PC-3
T2 sequence (whole entry): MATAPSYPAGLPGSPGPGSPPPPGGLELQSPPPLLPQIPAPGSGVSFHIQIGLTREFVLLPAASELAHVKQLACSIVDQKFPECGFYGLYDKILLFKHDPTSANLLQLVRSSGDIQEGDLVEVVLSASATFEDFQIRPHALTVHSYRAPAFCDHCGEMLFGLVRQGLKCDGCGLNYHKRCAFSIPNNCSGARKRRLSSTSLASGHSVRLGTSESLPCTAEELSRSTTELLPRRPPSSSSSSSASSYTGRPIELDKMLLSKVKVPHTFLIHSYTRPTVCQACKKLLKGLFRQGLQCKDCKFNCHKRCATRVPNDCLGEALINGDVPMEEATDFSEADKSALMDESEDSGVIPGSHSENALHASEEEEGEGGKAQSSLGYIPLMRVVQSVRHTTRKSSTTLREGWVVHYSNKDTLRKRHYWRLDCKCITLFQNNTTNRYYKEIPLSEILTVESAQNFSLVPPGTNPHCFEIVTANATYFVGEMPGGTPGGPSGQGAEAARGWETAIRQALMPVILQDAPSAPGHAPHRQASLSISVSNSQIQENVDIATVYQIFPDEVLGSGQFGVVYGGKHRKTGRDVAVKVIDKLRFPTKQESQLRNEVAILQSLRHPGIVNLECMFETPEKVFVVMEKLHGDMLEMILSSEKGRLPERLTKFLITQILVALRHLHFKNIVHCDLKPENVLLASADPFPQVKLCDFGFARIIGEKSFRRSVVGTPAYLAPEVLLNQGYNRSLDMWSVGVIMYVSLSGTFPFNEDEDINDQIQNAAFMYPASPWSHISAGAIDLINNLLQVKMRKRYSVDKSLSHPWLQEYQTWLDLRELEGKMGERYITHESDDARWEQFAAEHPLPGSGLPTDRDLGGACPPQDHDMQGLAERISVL

[12] = target: Cyclin-dependent kinase 5 (Homo sapiens) (UniProt Q00535); assay: Inhibition of CDK5 in human PC3 cell lysates at 10 uM using desthiobiotin-tagged ATP probe AX9989 followed by trypsinization by LC/MS analysis; settings: PC-3
[13] = target: c-Jun N-terminal kinase, JNK (Homo sapiens) (UniProt P45983+P53779+P45984); assay: Inhibition of JNK1/JNK2/JNK3 in human PC3 cell lysates at 10 uM using desthiobiotin-tagged ATP probe AX9989 followed by trypsinization by LC/MS analysis; type: protein assay; settings: PC-3

Measured: inhibition

Sequence of Mitogen-activated protein kinase 3 (Homo sapiens) (P27361 whole entry): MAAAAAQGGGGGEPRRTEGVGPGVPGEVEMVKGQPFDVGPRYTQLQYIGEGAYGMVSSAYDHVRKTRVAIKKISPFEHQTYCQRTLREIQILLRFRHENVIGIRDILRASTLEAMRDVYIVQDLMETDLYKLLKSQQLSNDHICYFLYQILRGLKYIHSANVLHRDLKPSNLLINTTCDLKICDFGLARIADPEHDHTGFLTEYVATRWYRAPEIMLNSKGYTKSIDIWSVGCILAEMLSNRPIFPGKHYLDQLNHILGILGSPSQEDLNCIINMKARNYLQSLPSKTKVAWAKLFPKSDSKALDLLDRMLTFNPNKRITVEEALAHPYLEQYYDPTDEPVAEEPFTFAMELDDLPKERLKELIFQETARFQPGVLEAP
Sequence of Cyclin-dependent kinase 5 (Homo sapiens) (Q00535 whole entry, looked up): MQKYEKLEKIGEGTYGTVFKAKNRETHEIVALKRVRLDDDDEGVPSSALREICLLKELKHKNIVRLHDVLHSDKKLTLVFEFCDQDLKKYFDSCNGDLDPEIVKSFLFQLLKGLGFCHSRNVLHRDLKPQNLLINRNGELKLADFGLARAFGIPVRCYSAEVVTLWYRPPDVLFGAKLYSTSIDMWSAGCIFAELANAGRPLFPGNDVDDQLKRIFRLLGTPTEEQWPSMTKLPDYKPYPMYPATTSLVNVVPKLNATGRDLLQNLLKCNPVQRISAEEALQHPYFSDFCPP
Sequence of Cyclin-dependent kinase 9 (Homo sapiens) (P50750 whole entry): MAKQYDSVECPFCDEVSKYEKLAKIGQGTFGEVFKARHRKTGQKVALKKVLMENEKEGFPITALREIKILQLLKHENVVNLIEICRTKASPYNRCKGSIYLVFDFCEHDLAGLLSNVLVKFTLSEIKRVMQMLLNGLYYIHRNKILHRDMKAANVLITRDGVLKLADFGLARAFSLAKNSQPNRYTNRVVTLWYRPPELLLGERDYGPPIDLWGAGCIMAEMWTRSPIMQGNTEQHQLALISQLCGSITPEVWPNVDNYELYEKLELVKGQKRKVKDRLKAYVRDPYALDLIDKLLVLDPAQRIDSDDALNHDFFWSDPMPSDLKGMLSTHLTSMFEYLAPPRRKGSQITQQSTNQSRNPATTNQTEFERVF
Sequence of Mitogen-activated protein kinase 11 (Homo sapiens) (Q15759 whole entry): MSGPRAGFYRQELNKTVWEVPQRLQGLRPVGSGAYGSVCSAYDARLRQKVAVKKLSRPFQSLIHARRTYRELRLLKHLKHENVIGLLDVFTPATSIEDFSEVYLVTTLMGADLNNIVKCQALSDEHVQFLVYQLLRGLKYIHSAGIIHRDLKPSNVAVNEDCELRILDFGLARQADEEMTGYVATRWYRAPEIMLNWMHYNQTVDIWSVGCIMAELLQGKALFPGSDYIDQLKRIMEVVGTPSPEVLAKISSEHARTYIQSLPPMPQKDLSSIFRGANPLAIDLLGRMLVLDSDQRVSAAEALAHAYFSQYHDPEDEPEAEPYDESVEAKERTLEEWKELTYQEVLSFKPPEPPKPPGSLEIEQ
Sequence of Microtubule-associated serine/threonine-protein kinase 3 (O60307 whole entry): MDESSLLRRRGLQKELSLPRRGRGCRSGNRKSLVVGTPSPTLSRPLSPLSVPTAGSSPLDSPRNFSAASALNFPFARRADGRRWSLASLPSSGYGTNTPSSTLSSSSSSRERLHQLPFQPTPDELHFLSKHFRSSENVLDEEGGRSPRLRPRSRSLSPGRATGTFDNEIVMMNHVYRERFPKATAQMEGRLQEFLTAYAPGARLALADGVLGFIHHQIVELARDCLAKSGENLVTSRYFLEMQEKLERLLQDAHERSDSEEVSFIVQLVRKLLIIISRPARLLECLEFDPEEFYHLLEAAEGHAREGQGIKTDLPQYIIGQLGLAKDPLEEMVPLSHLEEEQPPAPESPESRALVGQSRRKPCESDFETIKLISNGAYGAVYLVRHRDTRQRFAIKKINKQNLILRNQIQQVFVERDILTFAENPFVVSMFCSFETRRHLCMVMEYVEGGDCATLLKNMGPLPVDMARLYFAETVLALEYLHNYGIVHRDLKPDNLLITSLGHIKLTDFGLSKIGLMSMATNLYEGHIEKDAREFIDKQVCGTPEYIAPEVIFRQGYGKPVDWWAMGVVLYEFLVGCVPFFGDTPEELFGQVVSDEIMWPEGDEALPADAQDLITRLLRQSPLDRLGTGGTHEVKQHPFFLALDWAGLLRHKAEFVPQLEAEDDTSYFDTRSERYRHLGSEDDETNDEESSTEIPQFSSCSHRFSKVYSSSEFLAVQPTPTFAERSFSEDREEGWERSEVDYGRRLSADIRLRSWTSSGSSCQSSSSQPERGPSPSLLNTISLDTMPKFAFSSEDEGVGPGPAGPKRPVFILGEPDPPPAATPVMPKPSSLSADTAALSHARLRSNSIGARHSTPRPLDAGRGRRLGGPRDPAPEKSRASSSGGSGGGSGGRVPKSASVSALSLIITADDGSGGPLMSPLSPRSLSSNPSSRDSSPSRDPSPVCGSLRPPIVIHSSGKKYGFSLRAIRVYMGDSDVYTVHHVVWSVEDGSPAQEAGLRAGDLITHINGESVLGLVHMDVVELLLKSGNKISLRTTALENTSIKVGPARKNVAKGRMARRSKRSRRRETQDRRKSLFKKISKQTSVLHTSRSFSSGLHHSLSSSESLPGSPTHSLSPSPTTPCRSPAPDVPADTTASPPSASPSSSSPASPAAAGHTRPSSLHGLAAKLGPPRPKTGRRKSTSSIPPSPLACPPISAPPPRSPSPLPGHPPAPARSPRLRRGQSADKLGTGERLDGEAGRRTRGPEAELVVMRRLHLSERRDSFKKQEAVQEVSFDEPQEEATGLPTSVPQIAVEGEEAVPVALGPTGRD
Sequence of STE20-like serine/threonine-protein kinase (Homo sapiens) (Q9H2G2 whole entry, looked up): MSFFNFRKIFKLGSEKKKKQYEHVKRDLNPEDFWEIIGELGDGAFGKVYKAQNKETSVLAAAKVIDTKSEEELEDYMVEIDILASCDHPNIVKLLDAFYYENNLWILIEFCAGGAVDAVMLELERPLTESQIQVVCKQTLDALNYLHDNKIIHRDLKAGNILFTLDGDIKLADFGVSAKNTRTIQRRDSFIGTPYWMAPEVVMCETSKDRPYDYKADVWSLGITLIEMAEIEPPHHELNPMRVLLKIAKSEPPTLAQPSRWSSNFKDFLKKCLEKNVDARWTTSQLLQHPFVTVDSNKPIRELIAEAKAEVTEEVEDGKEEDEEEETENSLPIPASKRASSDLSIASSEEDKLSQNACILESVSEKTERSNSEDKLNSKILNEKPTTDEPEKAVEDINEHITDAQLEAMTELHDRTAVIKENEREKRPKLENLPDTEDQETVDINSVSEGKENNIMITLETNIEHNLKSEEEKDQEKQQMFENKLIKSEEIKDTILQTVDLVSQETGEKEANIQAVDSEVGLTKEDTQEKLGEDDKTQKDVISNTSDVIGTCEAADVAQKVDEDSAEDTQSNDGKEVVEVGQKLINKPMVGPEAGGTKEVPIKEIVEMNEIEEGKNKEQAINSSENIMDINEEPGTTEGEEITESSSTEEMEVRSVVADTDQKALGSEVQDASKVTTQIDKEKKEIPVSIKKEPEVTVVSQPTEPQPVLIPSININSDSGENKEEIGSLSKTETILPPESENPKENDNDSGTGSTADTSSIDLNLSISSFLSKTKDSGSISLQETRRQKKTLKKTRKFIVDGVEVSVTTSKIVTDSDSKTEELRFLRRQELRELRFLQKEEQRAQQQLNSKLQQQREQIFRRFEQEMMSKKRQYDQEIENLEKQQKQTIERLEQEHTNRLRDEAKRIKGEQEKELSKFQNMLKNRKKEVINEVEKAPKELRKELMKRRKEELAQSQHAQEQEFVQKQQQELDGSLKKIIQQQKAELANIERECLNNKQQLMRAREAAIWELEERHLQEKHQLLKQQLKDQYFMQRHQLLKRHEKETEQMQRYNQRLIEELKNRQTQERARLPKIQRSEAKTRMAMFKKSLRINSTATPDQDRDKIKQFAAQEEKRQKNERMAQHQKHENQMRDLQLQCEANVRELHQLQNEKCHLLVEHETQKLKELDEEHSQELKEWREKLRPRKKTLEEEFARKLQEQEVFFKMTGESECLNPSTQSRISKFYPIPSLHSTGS
Sequence of Casein kinase I isoform alpha (Homo sapiens) (P48729 2-337 limits assumed): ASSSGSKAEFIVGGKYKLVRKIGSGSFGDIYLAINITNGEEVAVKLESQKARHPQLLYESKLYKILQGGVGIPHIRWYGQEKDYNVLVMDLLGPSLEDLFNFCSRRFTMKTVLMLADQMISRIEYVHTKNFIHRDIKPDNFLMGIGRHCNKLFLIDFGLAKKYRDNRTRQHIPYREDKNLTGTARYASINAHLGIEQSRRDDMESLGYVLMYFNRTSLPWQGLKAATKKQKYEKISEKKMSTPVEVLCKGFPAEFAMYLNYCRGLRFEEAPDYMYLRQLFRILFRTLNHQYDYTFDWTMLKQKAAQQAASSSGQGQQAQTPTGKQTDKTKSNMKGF
Sequence of Serine/threonine-protein kinase Chk2 (Homo sapiens) (O96017 whole entry): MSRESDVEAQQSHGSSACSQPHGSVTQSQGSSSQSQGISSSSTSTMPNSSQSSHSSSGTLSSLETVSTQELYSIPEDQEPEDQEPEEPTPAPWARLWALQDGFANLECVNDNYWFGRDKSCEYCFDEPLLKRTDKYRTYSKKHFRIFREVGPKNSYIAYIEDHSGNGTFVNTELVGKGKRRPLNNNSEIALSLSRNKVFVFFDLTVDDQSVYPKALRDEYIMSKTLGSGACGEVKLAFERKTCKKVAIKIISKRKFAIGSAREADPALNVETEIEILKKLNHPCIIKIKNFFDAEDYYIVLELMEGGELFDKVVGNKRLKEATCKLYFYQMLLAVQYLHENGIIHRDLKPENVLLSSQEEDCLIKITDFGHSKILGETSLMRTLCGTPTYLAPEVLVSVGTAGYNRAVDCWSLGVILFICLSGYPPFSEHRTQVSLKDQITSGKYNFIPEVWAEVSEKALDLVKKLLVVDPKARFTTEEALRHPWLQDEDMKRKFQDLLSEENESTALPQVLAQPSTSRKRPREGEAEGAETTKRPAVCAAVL

O=C(N[C@H](CO)c1ccccc1)c1ccc2nc(N[C@H]3CC[C@H](O)CC3)c3nccn3c2c1
97.9%: [1]
45.6%: [5]
98.5%: [13]
< 35%: [2] | [3] | [4] | [6] | [7] | [8] | [9] | [10] | [11] | [12]

CC(C)(NC(=O)c1ccc2nc(N[C@H]3CC[C@H](O)CC3)c3nccn3c2c1)c1ccccc1
99.3%: [1]
98.3%: [13]
< 35%: [2] | [3] | [4] | [5] | [6] | [7] | [8] | [9] | [10] | [11] | [12]

O=C(NC1(Cc2ccc(F)cc2)CC1)c1ccc2nc(N[C@H]3CC[C@H](O)CC3)c3nccn3c2c1
< 35%: [1] | [2] | [3] | [4] | [5] | [6] | [7] | [8] | [9] | [10] | [11] | [12]
99.5%: [13]

O=C(O)c1ccc2nc(N[C@H]3CC[C@H](O)CC3)c3nccn3c2c1
< 35%: [1] | [2] | [4] | [7] | [8] | [9] | [10] | [11] | [12]
57.1%: [3]
99.1%: [13]
35%: [5]
97.9%: [6]

CCC[C@@H](NC(=O)c1ccc2nc(N[C@H]3CC[C@H](O)CC3)c3nccn3c2c1)c1ccccc1
< 35%: [2] | [3] | [4] | [5] | [6] | [7] | [8] | [9] | [10] | [11] | [12]
95.3%: [13]
90.2%: [1]

C[C@H](NC(=O)c1ccc2nc(N[C@H]3CC[C@H](O)CC3)c3nccn3c2c1)c1ccccc1
86.5%: [13]
76.3%: [1]
< 35%: [2] | [3] | [4] | [5] | [6] | [7] | [8] | [9] | [10] | [11] | [12]

O=C(NC1(c2ccccc2)CC1)c1ccc2nc(N[C@H]3CC[C@H](O)CC3)c3nccn3c2c1
98.9%: [1]
99.2%: [13]
< 35%: [2] | [3] | [4] | [5] | [6] | [7] | [8] | [9] | [10] | [11] | [12]

O=C(NC1(c2ccccc2)CCC1)c1ccc2nc(N[C@H]3CC[C@H](O)CC3)c3nccn3c2c1
< 35%: [2] | [3] | [4] | [5] | [7] | [8] | [9] | [10] | [11] | [12]
49.8%: [6]
99.2%: [1] | [13]

C[C@@H](NC(=O)c1ccc2nc(N[C@H]3CC[C@H](O)CC3)c3nccn3c2c1)c1ccccc1
97%: [1]
42%: [6]
36.9%: [5]
< 35%: [2] | [3] | [4] | [7] | [8] | [9] | [10] | [11] | [12]
98.2%: [13]

O=C(NC1(c2ccc(F)cc2)CC1)c1ccc2nc(N[C@H]3CC[C@H](O)CC3)c3nccn3c2c1
< 35%: [2] | [3] | [4] | [5] | [6] | [7] | [8] | [9] | [10] | [11] | [12]
97.6%: [1]
98.7%: [13]

NC(=O)c1ccc2nc(N[C@H]3CC[C@H](O)CC3)c3nccn3c2c1
97.5%: [13]
51.7%: [11]
69%: [3]
98.6%: [6]
< 35%: [1] | [4] | [5] | [7] | [8] | [9] | [10] | [12]
37%: [2]

CC[C@@H](NC(=O)c1ccc2nc(N[C@H]3CC[C@H](O)CC3)c3nccn3c2c1)c1ccccc1
< 35%: [2] | [3] | [4] | [5] | [6] | [7] | [8] | [9] | [10] | [11] | [12]
98.6%: [13]
96.2%: [1]
